Measured values as given in article PMC10447463, “Data-mining unveils structure–property–activity correlation of viral infectivity enhancing self-assembling peptides” (Nature Communications, 2023).
Several values for one entry are separate records, joined by “and”; a condition that tells them apart may be missing. Equal values may be shown once. Read-outs that look alike come from different tables or passages of the source.

Experiments:
[1] = system: HIV-1 infection of TZM-bl cells; experiment: HIV-1 infectivity enhancement assay, β-galactosidase luminescence; format: cell-based; details: for Rel-to EFC / n-fold to virus: Fig S8 panels B, D; for Log10 Inf. rel. to EF-C: log10 of HIV-1 infection of TZM-bl cells relative to EF-C, Fig S15 source data, asymmetric std dev errors
[2] = format: physicochemical; details: STD prep
[3] = format: physicochemical
In short: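 Preformed peptide fibrils (1 mg/mL) mixed with 50 µM ThT in PBS, 15 min at RT, fluorescence ex 440/em 488 nm versus PBS blank, triplicates. Zeta potential: peptides at 1 mg/mL in PBS pH 7.4, aged 1 d at RT, diluted in 1 mM KCl, Smoluchowski from electrophoretic mobility.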

[4] = β-sheet content by ATR-FT-IR; format: physicochemical
In short: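 Fluorescamine labelling (20 min RT, λex 365/λem 470 nm) of 3 kDa-MWCO filtrate and unfiltered fibril samples, redissolved in DMSO, gave conversion rate as 100 minus the percentage filtrate/original intensity, in triplicate. Secondary structure was quantified by ATR FT-IR on lyophilized 1 mg/mL fibrils, 64 scans.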

[5] = Feb2021, Log10 of infectivity relative to EF-C
[6] = Feb2021, figures match the 1.3 µM column
[7] = Feb2021, infectivity relative to virus only
[8] = Feb2021, n-fold enhancement relative to EF-C
[9] = Feb2021, n-fold infectivity relative to EF-C
[10] = infectivity enhancement relative to EF-C
[11] = infectivity n-fold relative to virus alone
[12] = infectivity class (low / medium / high) of each library peptide, main list in c1-c6, same classes repeated in sub-lists of sequences containing the hydrophobicity/charge patterns P+,H0,P+,H0,P0,H0,P0, P+,H0,P0,H0,P0,H0,P0, P+,H0,P0,H0
[13] = infectivity enhancement relative to EF-C (=1), Feb2021 run
[14] = infectivity n-fold relative to virus only, Feb2021 run
[15] = log10 of infectivity relative to EF-C, Feb2021 run
[16] = ThT fluorescence relative to blank (42.1851851851852 a.u.)
[17] = ThT fluorescence relative to blank, blank = 42.1851851851852
[18] = Feb2021, 1.3 µM value relative to virus only (0 µM)
[19] = Feb2021, unrounded values of the 1.3 µM column
[20] = Feb2021 run, infectivity n-fold relative to virus alone
[21] = Feb2021 run, log10 of infectivity relative to EF-C
[22] = Feb2021 run, n-fold infectivity relative to EF-C
[23] = infectivity class (low / medium / high) of the peptide in the sequence-pattern analysis, Fig. S22-A4, class limits not given
[24] = relative to blank 42.1851851851852 a.u.
[25] = Feb2021, infectivity enhancement relative to EF-C
[26] = Feb2021, log10 of infectivity relative to EF-C

Substance | Log10 of Rel to EFC (Feb2021) [1, 5] | Absolute Infectivity / RLU /s (Feb2021) [1, 6] | n-fold to virus (Feb2021) [1, 7] | Rel-to EFC (Feb-2021) [1, 8] | Rel-to EFC (Feb-2021) [1, 9] | infectivity [1, 12] | Log10 Inf. rel. to EF-C [1] | TEM: 1= fibrils, 0= aggregates (micelle), 0.5 = aggregates and fibrils, -1 = nothing obersved, STD prep [2] | Tht rel to blank (42.1851851851852) [3, 16] | Tht rel to blank (42.1851851851852) [3, 17] | Tht category (> 1.5 to blank = +) ([3]; category 1/0) | FTIR ß-sheet content/ % ([4]; ATR-FT-IR) | n-fold to virus (Feb2021) [1, 18] | Absolute Infectivity / RLU /s (Feb2021) [1, 19] | n-fold to virus (Feb2021) [1, 20] | Log10 of Rel to EFC (Feb2021) [1, 21] | Rel-to EFC (Feb-2021) [1, 22] | infectivity [1, 23] | Tht rel to blank (42.1851851851852) [3, 24] | other results
KIKQIINMWQ [JG2] | -0.4604 | 9363 RLU /s | 14.55 | 0.3464 | 0.3464 | medium | -0.4604 | 1 | 4.945 | 4.945 | 1 (ThT. Cat is 1, if Rel. ThT >2) | 41% and 40.68% | – | – | – | – | – | – | – | Rel-to EFC [1, 10]: 0.3464; n-fold to virus [1, 11]: 14.5544; Rel-to EFC (Feb-2021) [1, 13]: 0.3464; n-fold to virus (Feb2021) [1, 14]: 14.55; Log10 of Rel to EFC (Feb2021) [1, 15]: -0.4604; TEM: 1= fibrils, 0= aggregates (micelle), 0.5 = aggregates and fibrils, -1 = nothing obersved, STD prep ([2]; FigS26): 1; Tht category (> 1.5 to blank = +) ([3]; FigS26): 1 (Tht category (> 1.5 to blank = +)); FTIR ß-sheet content/ % [4]: 40.68%
CKIKIQINM [MG2] | 0.2012 | – | – | 1.589 | 1.589 | high | 0.2012 | 1 | 2.648 | – | 1 (ThT. Cat is 1, if Rel. ThT >2) | 43% and 42.84% | 66.78 | 30273.33333 RLU /s | 66.78 | 0.2012 | 1.589 | high | 2.648 | FTIR ß-sheet content/ % [4]: 42.84%
KLKQLL [KM27 / psis14] | -2.131 | 196.7 RLU /s | 0.3105 | – | 0.00739 | low | -2.131 | 0.5 | 1.089 | 1.089 | 0 (ThT-inactive (N-Fold <2)) | 0% | – | – | – | – | – | – | – | Rel-to EFC (Feb-2021) [1, 25]: 0.00739
KIKIQIC [TM112 / CN11] | -0.2164 | 9447 RLU /s | 25.53 | 0.6076 | 0.6076 | medium | -0.2164 | 1 | 4.12 | 4.12 | 1 (ThT. Cat is 1, if Rel. ThT >2) | 53% and 52.93% | – | – | – | – | – | – | – | Rel-to EFC (Feb-2021) [1, 25]: 0.6076; Log10 of Rel to EFC (Feb2021) [1, 26]: -0.2164; Rel-to EFC [1, 10]: 0.6076; n-fold to virus [1, 11]: 25.53; Tht category (> 1.5 to blank = +) ([3]; FigS26): 1 (Tht category (> 1.5 to blank = +))
CKFKQFFNMWQ [CK13] | -0.2148 | 23486.66667 RLU /s | 25.62 | 0.6098 | 0.6098 | medium | -0.2148 | 1 | 27.7 | 27.7 | 1 (ThT. Cat is 1, if Rel. ThT >2) | 59% and 59.11% | – | – | 25.62 | -0.2148 | 0.6098 | – | 27.7 | FTIR ß-sheet content/ % [4]: 59.11%
KIKIKIKIYYYY [JR7] | 0.1402 | – | – | – | – | – | 0.1402 | – | 1.259 | – | – | 0% | – | – | – | – | – | high | – | Rel-to EFC (Feb-2021) [1, 25]: 1.381
CKFKFQFW [TM72] | -0.05512 | – | – | – | – | high | -0.05512 | – | 1.802 | – | – | 43% | – | – | – | – | – | high | – | Rel-to EFC (Feb-2021) [1, 25]: 0.8808; Rel-to EFC [1, 10]: 0.8808; n-fold to virus [1, 11]: 37.01
RGDSKIKIQIC [TM113 / RC11] | -0.2249 | – | – | 0.5957 | – | medium | -0.2249 | – | 13.8 | – | – | 39% | – | – | – | – | – | – | – | n-fold to virus (Feb2021) ([1]; Feb2021, infectivity relative to virus only (0 µM)): 25.03 n-fold
KIKIQINMW [JGB1 /TM85] | 0.3339 | – | – | 2.157 | – | high | 0.3339 | 1 | 4.61 | – | 1 (ThT. Cat is 1, if Rel. ThT >2) | – | – | – | 90.64 | 0.3339 | 2.157 | high | 4.61 | –
KFKFKFQF [TG18] | -0.09726 | 18696.66667 RLU /s | 33.59 | 0.7993 | 0.7993 | – | -0.09726 | 1 | 41.89 | 41.89 | 1 (ThT. Cat is 1, if Rel. ThT >2) | – | – | – | – | – | – | high | – | –
CEIEIQI [AR2/ TM142] | – | – | – | – | 0.02791 | low | -1.554 | 1 | 2.23 | – | 1 (ThT. Cat is 1, if Rel. ThT >2) | – | 1.173 | 633.3 RLU /s | – | – | – | – | 2.23 | Log10 of Rel to EFC (Feb2021) [1, 26]: -1.554; Rel-to EFC (Feb-2021) [1, 13]: 0.02791; n-fold to virus (Feb2021) [1, 14]: 1.173; Log10 of Rel to EFC (Feb2021) [1, 15]: -1.554
QCKIKIQI [CK3] | -0.9508 | – | – | 0.112 | 0.112 | medium | -0.9508 | 1 | 2.039 | – | 1 (ThT. Cat is 1, if Rel. ThT >2) | – | 4.706 | 3577 RLU /s | 4.706 | -0.9508 | 0.112 | – | 2.039 | –
CKFKFQFNMW [KB14] | – | – | – | – | 0.9602 | high | -0.01766 | 1 | – | – | 1 (ThT. Cat is 1, if Rel. ThT >2) | – | 40.34 | 21516.66667 RLU /s | 40.34 | -0.01766 | 0.9602 | high | 6.314 | Log10 of Rel to EFC (Feb2021) [1, 26]: -0.01766
KAKAQANM [TM152] | -2.046 | – | – | 0.009 | 0.009 | low | -2.046 | 0.5 | 1.082 | – | 0 (ThT-inactive (N-Fold <2)) | – | 0.3782 | 496.7 RLU /s | 0.3782 | -2.046 | 0.009 | low | 1.082 | –
